We go through 51 molecules from the Biogen ADME set (Fang et al. 2023).

As a reminder, the aqueous solubility is the dissolved amount per volume that the medium holds. A higher aqueous solubility goes with a readily soluble substance.

For this series the following is noted: for aqueous solubility: pH 6.8.

Values after ≈ are worked out from the molar mass of the structure shown. Some results are limits rather than exact numbers.

For `O=C(Nc1cccc2ncccc12)[C@H]1CCCN(S(=O)(=O)c2ccc(F)cc2)C1`, the intrinsic clearance, human liver microsomes came to 35.2 mL/min/kg and the intrinsic clearance, rat liver microsomes turned out to be 698 mL/min/kg.

On to `COCCc1noc(CN2CC(c3ccccc3)(c3ccccc3)CCC2=O)n1`, for which the MDR1-MDCK efflux ratio was 2.43; the fraction unbound, human plasma worked out at 0.147; the fraction unbound, rat plasma was 0.179; the intrinsic clearance, human liver microsomes is 211 mL/min/kg. The molecule also had an intrinsic clearance, rat liver microsomes of 2010 mL/min/kg.

In turn, `COc1cc2nc(-c3cc(F)ccc3O)nc(N[C@@H]3CNC[C@H]3C(C)(C)O)c2cc1OC.Cl` had a fraction unbound, human plasma of 0.00076 and a fraction unbound, rat plasma of 0.0015.

With `Cc1ccc(F)cc1NC(=O)c1cnc2onc(C(C)C)c2c1`, the MDR1-MDCK efflux ratio came out at 0.649; the intrinsic clearance, human liver microsomes was found to be 29.3 mL/min/kg; the intrinsic clearance, rat liver microsomes came to 217 mL/min/kg; the aqueous solubility was determined as 42.4 µg/mL (≈ 135 µM).

As to `Cc1nc(-c2ccc(C)c(O)c2)n(C(C)(C)C)n1`, the intrinsic clearance, human liver microsomes is not above 4.74 mL/min/kg; the intrinsic clearance, rat liver microsomes turned out to be 124 mL/min/kg; the aqueous solubility came to 12.1 µg/mL (≈ 49.3 µM).

In the case of `c1ccc(-c2nsc(N3CCCN(c4nccs4)CC3)n2)cc1`, the MDR1-MDCK efflux ratio stood at 0.656; the intrinsic clearance, human liver microsomes was 145 mL/min/kg; the intrinsic clearance, rat liver microsomes worked out at 1470 mL/min/kg; the aqueous solubility is 29.6 µg/mL (≈ 86.2 µM).

Consider `O=C(Nc1ccn(Cc2ccc(O)cc2C(F)(F)F)n1)c1c(F)cccc1F`, for which the MDR1-MDCK efflux ratio is 2.23; the intrinsic clearance, human liver microsomes is 16.7 mL/min/kg; the intrinsic clearance, rat liver microsomes worked out at 438 mL/min/kg; the aqueous solubility came out at 43.5 µg/mL (≈ 109 µM).

As to `COc1ccc2nc(C)nc(N3CC(CO)C3)c2c1`, the MDR1-MDCK efflux ratio worked out at 11.5; the intrinsic clearance, human liver microsomes came to 5.26 mL/min/kg; the intrinsic clearance, rat liver microsomes turned out to be 13.6 mL/min/kg; the aqueous solubility is 29.3 µg/mL (≈ 113 µM).

For `CN(C)c1ccncc1CN1CCN(c2ccc(C(N)=O)cc2)CC1`, the MDR1-MDCK efflux ratio is 18.8; the intrinsic clearance, human liver microsomes is not above 4.74 mL/min/kg; the intrinsic clearance, rat liver microsomes is not above 10.7 mL/min/kg.

`CCN(Cc1nc2cc(Cl)ccc2c(=O)[nH]1)C(=O)COc1ccccc1Cc1ccccc1` registered an intrinsic clearance, human liver microsomes of 225 mL/min/kg; an intrinsic clearance, rat liver microsomes of 1470 mL/min/kg; an aqueous solubility of 1.22 µg/mL (≈ 2.64 µM).

Regarding `CN1CCN(c2oc(-c3cccc4ccccc34)nc2C#N)CC1`, the MDR1-MDCK efflux ratio was determined as 0.363; the intrinsic clearance, human liver microsomes amounted to 94.3 mL/min/kg; the intrinsic clearance, rat liver microsomes was 1600 mL/min/kg.

Regarding `CCc1cc2c(N3CCN(Cc4nccn4C)CC3)ncnc2s1`, the aqueous solubility worked out at 66.8 µg/mL (≈ 195 µM).

`Cc1nc2ccc(C(=O)NCCCN3Cc4ccccc4C3)cc2[nH]1` showed an aqueous solubility of 52.4 µg/mL (≈ 157 µM).

For `Cc1ccc(C(=O)Nc2ccccc2C#N)cc1`, the intrinsic clearance, human liver microsomes was found to be 88.2 mL/min/kg; the intrinsic clearance, rat liver microsomes was determined as 173 mL/min/kg; the aqueous solubility stood at 10.4 µg/mL (≈ 43.9 µM).

With `COc1ccc(C(=O)c2ccc(C)cc2)c(OC)c1`, the MDR1-MDCK efflux ratio worked out at 0.46; the intrinsic clearance, human liver microsomes is 102 mL/min/kg; the intrinsic clearance, rat liver microsomes stood at 3010 mL/min/kg.

Turning to `Cc1cc(C(=O)N(C)CCCC2CCCC2)cc(C)n1`, the MDR1-MDCK efflux ratio amounted to 0.782; the intrinsic clearance, human liver microsomes was found to be 63.9 mL/min/kg; the intrinsic clearance, rat liver microsomes was 5650 mL/min/kg.

On to `Cc1sc(C)c(C(=O)NC2(c3ccc(C(=O)O)cc3)CC2)c1Cc1ccc(C(F)(F)F)cc1`, for which the MDR1-MDCK efflux ratio came to 8.19; the intrinsic clearance, human liver microsomes was not above 4.74 mL/min/kg; the intrinsic clearance, rat liver microsomes turned out to be 31.2 mL/min/kg; the aqueous solubility turned out to be 51.4 µg/mL (≈ 109 µM).

On to `CC1CC1C(=O)N1CCC(n2c(=O)[nH]c3ccccc32)CC1` (stereo unspecified), for which the intrinsic clearance, human liver microsomes is not above 4.74 mL/min/kg; the intrinsic clearance, rat liver microsomes turned out to be 162 mL/min/kg; the aqueous solubility is 32.2 µg/mL (≈ 108 µM).

For `CCOC(=O)C1CCN(C(=O)c2cc3occc3c(Nc3ccc(F)cc3)n2)CC1`, the MDR1-MDCK efflux ratio worked out at 1.32 and the aqueous solubility is 0.88 µg/mL (≈ 2.14 µM).

Take `O=C(NCc1ccc(F)cc1)C1CCN(C(=O)/C=C/c2ccccc2)CC1`: the MDR1-MDCK efflux ratio is 6.17; the intrinsic clearance, human liver microsomes is not above 4.74 mL/min/kg; the intrinsic clearance, rat liver microsomes came out at 133 mL/min/kg; the aqueous solubility turned out to be 8.26 µg/mL (≈ 22.5 µM).

The molecule `O=C(NCCc1cccc2cccnc12)C1CCCCC1` displayed an intrinsic clearance, human liver microsomes of 158 mL/min/kg; an intrinsic clearance, rat liver microsomes of 906 mL/min/kg; an aqueous solubility of 41.7 µg/mL (≈ 148 µM).

Molecule `NC(=O)c1cnn(Cc2cccc(F)c2)c1` had an intrinsic clearance, human liver microsomes not above 4.74 mL/min/kg and an intrinsic clearance, rat liver microsomes not above 10.7 mL/min/kg.

For the molecule `Cc1cc(C)c(S(=O)(=O)Nc2ccc3c(c2)OCO3)c(C)c1-n1cnnn1`, the MDR1-MDCK efflux ratio came to 24.1 and the aqueous solubility came out at 17.8 µg/mL (≈ 46 µM).

`Cc1c(C(=O)NCC2CCSCC2)nnn1-c1cccc2cnccc12`: the intrinsic clearance, human liver microsomes worked out at 177 mL/min/kg and the intrinsic clearance, rat liver microsomes came to 1770 mL/min/kg.

With `CCCn1cnnc1Cn1ccnc1-c1ccc2occc2c1`, the MDR1-MDCK efflux ratio was determined as 93.8; the intrinsic clearance, human liver microsomes was not above 4.74 mL/min/kg; the intrinsic clearance, rat liver microsomes amounted to 16.6 mL/min/kg; the aqueous solubility was 28.6 µg/mL (≈ 93.1 µM).

`CCCNC(=O)c1ccc(OC2CCN(C)CC2)cc1` registered an intrinsic clearance, human liver microsomes not above 4.74 mL/min/kg and an intrinsic clearance, rat liver microsomes of 35.1 mL/min/kg.

As to `Clc1ccccc1CNCc1ccc2c(c1)OCCO2`, the MDR1-MDCK efflux ratio was 0.443; the intrinsic clearance, human liver microsomes came to 479 mL/min/kg; the intrinsic clearance, rat liver microsomes was 2170 mL/min/kg; the aqueous solubility is 24.5 µg/mL (≈ 84.6 µM).

In the case of `CCOC(=O)CCN1CCC=C(Br)C1`, the MDR1-MDCK efflux ratio turned out to be 0.625.

Turning to `CN(C)CCN(Cc1ccccc1)C(=O)CCC(=O)Nc1ncc(-c2ccccc2)n1C`, the MDR1-MDCK efflux ratio is 38.2; the intrinsic clearance, human liver microsomes turned out to be 92 mL/min/kg; the intrinsic clearance, rat liver microsomes is 279 mL/min/kg; the aqueous solubility turned out to be 59.1 µg/mL (≈ 136 µM).

As to `Cc1cccc2cc(C(N)=S)/c(=N/Nc3ccccc3)oc12`, the aqueous solubility stood at 0.48 µg/mL (≈ 1.55 µM).

`O=C(NCC(F)(F)F)c1ccncc1`: the aqueous solubility came to 30.7 µg/mL (≈ 150 µM).

For the molecule `CN(C)c1ccc2c(c1)Sc1cc(N(C)C)ccc1N2`, the MDR1-MDCK efflux ratio came out at 6.59; the intrinsic clearance, human liver microsomes came to 31.8 mL/min/kg; the intrinsic clearance, rat liver microsomes worked out at 153 mL/min/kg.

`Cc1ccc(OCc2nc3cc(N)ccc3[nH]2)cc1` came in with an intrinsic clearance, human liver microsomes not above 4.74 mL/min/kg; an intrinsic clearance, rat liver microsomes of 49.1 mL/min/kg; an aqueous solubility of 16.8 µg/mL (≈ 66.1 µM).

With `COC(=O)N1CCCN(C(=O)c2ccc(-c3ccccc3Cl)o2)CC1`, the MDR1-MDCK efflux ratio came out at 0.661; the intrinsic clearance, human liver microsomes stood at 174 mL/min/kg; the intrinsic clearance, rat liver microsomes was determined as 4850 mL/min/kg; the aqueous solubility is 58.9 µg/mL (≈ 162 µM).

In turn, `COCC(C)(C)CNC(=O)C1(Cn2cccn2)CC1` displayed an intrinsic clearance, human liver microsomes of 13 mL/min/kg and an intrinsic clearance, rat liver microsomes of 188 mL/min/kg.

On to `Cc1cc(C(F)(F)F)nc(CCNC(=O)N(C)Cc2c(C)noc2C)n1`, for which the MDR1-MDCK efflux ratio turned out to be 16.4; the intrinsic clearance, human liver microsomes was found to be 172 mL/min/kg; the intrinsic clearance, rat liver microsomes came out at 578 mL/min/kg.

Turning to `Cc1cc(-c2cnn(CCNC(=O)c3sc(C)nc3C)c2C2CC2)on1`, the MDR1-MDCK efflux ratio turned out to be 5.26; the intrinsic clearance, human liver microsomes was 23.8 mL/min/kg; the intrinsic clearance, rat liver microsomes worked out at 123 mL/min/kg; the aqueous solubility stood at 67.1 µg/mL (≈ 181 µM).

In the case of `CS(=O)(=O)N1CCc2cc(C(=O)NCCOc3ccc4ccccc4c3)ccc21`, the MDR1-MDCK efflux ratio was 1.68 and the aqueous solubility came out at 0.44 µg/mL (≈ 1.07 µM).

In the case of `O=C1NCCN(C(=O)c2ccc3nccn3c2)C1c1ccccc1C(F)(F)F` (stereo unspecified), the MDR1-MDCK efflux ratio came out at 7.15; the fraction unbound, human plasma was 0.71; the fraction unbound, rat plasma was found to be 0.633; the intrinsic clearance, human liver microsomes is not above 4.74 mL/min/kg. Also, the intrinsic clearance, rat liver microsomes was 37.5 mL/min/kg and the aqueous solubility came to 69.6 µg/mL (≈ 179 µM).

Take `COc1cc(/C=C/c2nccc(C#N)n2)ccc1F`: the aqueous solubility was 3.27 µg/mL (≈ 12.8 µM).

The molecule `CN(C(=O)[C@@H](N)Cc1ccccc1)c1ccccc1` came in with an intrinsic clearance, human liver microsomes not above 4.74 mL/min/kg and an intrinsic clearance, rat liver microsomes of 392 mL/min/kg.

In the case of `CC(=O)N1CCC(c2ccc(C(=O)O)cn2)CC1`, the intrinsic clearance, human liver microsomes was not above 4.74 mL/min/kg; the intrinsic clearance, rat liver microsomes was not above 10.7 mL/min/kg; the aqueous solubility stood at 50.6 µg/mL (≈ 204 µM).

`Nc1ncc(-c2cccc(C(F)(F)F)c2)c(C2CCCCN2C(=O)c2ccccc2)n1` (stereo unspecified): the MDR1-MDCK efflux ratio worked out at 1.93; the fraction unbound, human plasma is 0.00903; the fraction unbound, rat plasma was determined as 0.0137; the intrinsic clearance, human liver microsomes stood at 380 mL/min/kg. The molecule also had an intrinsic clearance, rat liver microsomes of 1510 mL/min/kg and an aqueous solubility of 25.1 µg/mL (≈ 58.9 µM).

Consider `COCCc1n[nH]c(-c2ccc(N3CCN(C)CC3)cc2)n1`, for which the MDR1-MDCK efflux ratio stood at 7.53; the intrinsic clearance, human liver microsomes is not above 4.74 mL/min/kg; the intrinsic clearance, rat liver microsomes turned out to be 50 mL/min/kg.

Turning to `CC(C)[C@H](CO)Nc1nc(Nc2cc(N)cc(Cl)c2)c2ncn(C(C)C)c2n1`, the MDR1-MDCK efflux ratio was 16.9; the fraction unbound, human plasma came to 0.00867; the fraction unbound, rat plasma was determined as 0.00796.

Take `C=CCc1ccccc1OCC(O)CNC(C)C` (stereo unspecified): the fraction unbound, rat plasma was 0.313.

In the case of `CC(=O)c1ccc2c(c1)CCN(CC1CCC3(CC1)OCCO3)CC2`, the MDR1-MDCK efflux ratio worked out at 0.556; the intrinsic clearance, human liver microsomes is not above 4.74 mL/min/kg; the intrinsic clearance, rat liver microsomes stood at 229 mL/min/kg.

Regarding `N#Cc1ncn(Cc2ncc(-c3ccccc3)s2)c1C#N`, the aqueous solubility amounted to 44.5 µg/mL (≈ 153 µM).

Turning to `COc1cc(N2CCN(C)CC2)ccc1Nc1ncc2c(n1)N(C)c1ccccc1C(=O)N2`, the MDR1-MDCK efflux ratio was 45; the intrinsic clearance, human liver microsomes was found to be 14.2 mL/min/kg; the intrinsic clearance, rat liver microsomes worked out at 131 mL/min/kg; the aqueous solubility was 61.7 µg/mL (≈ 138 µM).

For the molecule `CCN(CC)CC(=O)Nc1ccc(Oc2ccc(C)nn2)cc1`, the MDR1-MDCK efflux ratio came out at 1.62; the intrinsic clearance, human liver microsomes was not above 4.74 mL/min/kg; the intrinsic clearance, rat liver microsomes was found to be 31.6 mL/min/kg.

Turning to `Cc1cccc(Nc2ccc(C3CCN(C(=O)c4cc5cc(F)ccc5n4C)CC3)nc2)n1`, the MDR1-MDCK efflux ratio is 1.5 and the aqueous solubility stood at 0.19 µg/mL (≈ 0.428 µM).
